Experimental data as given in the NIST ThermoML archive (doi:10.1016/j.fluid.2018.09.026).
Values joined by “and” are separate entries in the source; they are usually repeats but may differ in a detail not shown here. Identical values can stand only once.

Details: Liquid; for mass density: Vibrating tube method; for viscosity: Vibrating wire viscometry

OCCOCCO [diethylene glycol]
Details | mass density | viscosity
283.15 K, 100 kPa | 1123.1 kg/m3 | –
283.15 K, 640 kPa | 1123.3 kg/m3 | –
283.15 K, 1080 kPa | 1123.5 kg/m3 | –
283.15 K, 1590 kPa | 1123.7 kg/m3 | –
283.15 K, 2140 kPa | 1124 kg/m3 | –
283.15 K, 3050 kPa | 1124.3 kg/m3 | –
283.15 K, 5050 kPa | 1125.2 kg/m3 | –
283.15 K, 6930 kPa | 1126 kg/m3 | –
283.15 K, 9930 kPa | 1127.2 kg/m3 | –
283.15 K, 14810 kPa | 1129.3 kg/m3 | –
283.15 K, 19760 kPa | 1131.3 kg/m3 | –
283.15 K, 24610 kPa | 1133.3 kg/m3 | –
283.15 K, 29600 kPa | 1135.2 kg/m3 | –
283.15 K, 34500 kPa | 1137.1 kg/m3 | –
283.15 K, 39420 kPa | 1139 kg/m3 | –
283.15 K, 44300 kPa | 1140.8 kg/m3 | –
283.15 K, 49180 kPa | 1142.6 kg/m3 | –
283.15 K, 54060 kPa | 1144.4 kg/m3 | –
283.15 K, 59030 kPa | 1146.1 kg/m3 | –
283.15 K, 63810 kPa | 1147.8 kg/m3 | –
283.15 K, 68760 kPa | 1149.5 kg/m3 | –
293.15 K, 100 kPa | 1115.9 kg/m3 | –
293.15 K, 570 kPa | 1116.1 kg/m3 | –
293.15 K, 1080 kPa | 1116.3 kg/m3 | –
293.15 K, 1530 kPa | 1116.6 kg/m3 | –
293.15 K, 2110 kPa | 1116.8 kg/m3 | –
293.15 K, 3080 kPa | 1117.2 kg/m3 | –
293.15 K, 5040 kPa | 1118.1 kg/m3 | –
293.15 K, 6990 kPa | 1118.9 kg/m3 | –
293.15 K, 9940 kPa | 1120.2 kg/m3 | –
293.15 K, 14840 kPa | 1122.3 kg/m3 | –
293.15 K, 19740 kPa | 1124.3 kg/m3 | –
293.15 K, 24680 kPa | 1126.4 kg/m3 | –
293.15 K, 29600 kPa | 1128.4 kg/m3 | –
293.15 K, 34530 kPa | 1130.3 kg/m3 | –
293.15 K, 39360 kPa | 1132.2 kg/m3 | –
293.15 K, 44320 kPa | 1134.1 kg/m3 | –
293.15 K, 49120 kPa | 1136 kg/m3 | –
293.15 K, 54090 kPa | 1137.8 kg/m3 | –
293.15 K, 58990 kPa | 1139.6 kg/m3 | –
293.15 K, 63820 kPa | 1141.3 kg/m3 | –
293.15 K, 68750 kPa | 1143 kg/m3 | –
293.23 K, 180 kPa | – | 34.67 mPa·s [middle of 4 runs]
293.23 K, 1170 kPa | – | 34.84 mPa·s [middle of 4 runs]
293.23 K, 2100 kPa | – | 34.99 mPa·s [middle of 5 runs]
293.23 K, 2110 kPa | – | 35.15 mPa·s
293.23 K, 5060 kPa | – | 35.84 mPa·s and 36.03 mPa·s and 36.04 mPa·s
293.23 K, 5070 kPa | – | 35.72 mPa·s
293.23 K, 10240 kPa | – | 37.39 mPa·s [middle of 4 runs]
293.23 K, 19990 kPa | – | 40.52 mPa·s [middle of 4 runs]
293.23 K, 29910 kPa | – | 43.47 mPa·s and 43.45 mPa·s
293.23 K, 29920 kPa | – | 43.5 mPa·s and 43.6 mPa·s
293.23 K, 40040 kPa | – | 47.04 mPa·s [middle of 5 runs]
293.23 K, 50530 kPa | – | 51.14 mPa·s [middle of 4 runs]
293.23 K, 69900 kPa | – | 58.55 mPa·s
293.23 K, 69990 kPa | – | 58.38 mPa·s
293.23 K, 70070 kPa | – | 58.52 mPa·s
303.15 K, 100 kPa | 1108.8 kg/m3 | –
303.15 K, 680 kPa | 1109 kg/m3 | –
303.15 K, 1130 kPa | 1109.2 kg/m3 | –
303.15 K, 1580 kPa | 1109.4 kg/m3 | –
303.15 K, 2120 kPa | 1109.7 kg/m3 | –
303.15 K, 3030 kPa | 1110.1 kg/m3 | –
303.15 K, 5040 kPa | 1111 kg/m3 | –
303.15 K, 6950 kPa | 1111.9 kg/m3 | –
303.15 K, 9960 kPa | 1113.2 kg/m3 | –
303.15 K, 14840 kPa | 1115.4 kg/m3 | –
303.15 K, 19740 kPa | 1117.5 kg/m3 | –
303.15 K, 24680 kPa | 1119.6 kg/m3 | –
303.15 K, 29610 kPa | 1121.6 kg/m3 | –
303.15 K, 34520 kPa | 1123.6 kg/m3 | –
303.15 K, 39380 kPa | 1125.6 kg/m3 | –
303.15 K, 44350 kPa | 1127.5 kg/m3 | –
303.15 K, 49140 kPa | 1129.4 kg/m3 | –
303.15 K, 54090 kPa | 1131.3 kg/m3 | –
303.15 K, 58990 kPa | 1133.1 kg/m3 | –
303.15 K, 63850 kPa | 1134.9 kg/m3 | –
303.15 K, 68760 kPa | 1136.6 kg/m3 | –
303.27 K, 180 kPa | – | 21.44 mPa·s [middle of 5 runs]
303.27 K, 190 kPa | – | 21.49 mPa·s
303.27 K, 1070 kPa | – | 21.42 mPa·s
303.27 K, 1080 kPa | – | 21.42 mPa·s and 21.5 mPa·s and 21.48 mPa·s
303.27 K, 2100 kPa | – | 21.72 mPa·s and 21.69 mPa·s
303.27 K, 5160 kPa | – | 22.14 mPa·s and 22.35 mPa·s and 22.13 mPa·s
303.27 K, 5170 kPa | – | 22.08 mPa·s
303.27 K, 10180 kPa | – | 22.97 mPa·s
303.27 K, 10190 kPa | – | 23.05 mPa·s and 23.2 mPa·s and 23 mPa·s
303.27 K, 20040 kPa | – | 24.7 mPa·s and 25.05 mPa·s and 24.87 mPa·s
303.27 K, 30920 kPa | – | 26.77 mPa·s [middle of 5 runs]
303.27 K, 40100 kPa | – | 28.49 mPa·s [middle of 5 runs]
303.27 K, 50040 kPa | – | 30.4 mPa·s
303.27 K, 50050 kPa | – | 30.52 mPa·s and 30.43 mPa·s
303.27 K, 50060 kPa | – | 30.59 mPa·s
303.27 K, 50070 kPa | – | 30.49 mPa·s
303.27 K, 68860 kPa | – | 34.35 mPa·s
303.27 K, 68920 kPa | – | 34.55 mPa·s
303.27 K, 69030 kPa | – | 34.74 mPa·s
303.27 K, 69090 kPa | – | 34.81 mPa·s
313.15 K, 100 kPa | 1101.7 kg/m3 and 1101.6 kg/m3 | –
313.15 K, 640 kPa | 1101.8 kg/m3 | –
313.15 K, 1140 kPa | 1102.1 kg/m3 | –
313.15 K, 1640 kPa | 1102.3 kg/m3 | –
313.15 K, 2100 kPa | 1102.5 kg/m3 | –
313.15 K, 3090 kPa | 1103 kg/m3 | –
313.15 K, 5130 kPa | 1103.9 kg/m3 | –
313.15 K, 6960 kPa | 1104.8 kg/m3 | –
313.15 K, 9960 kPa | 1106.1 kg/m3 | –
313.15 K, 14940 kPa | 1108.4 kg/m3 | –
313.15 K, 19750 kPa | 1110.6 kg/m3 | –
313.15 K, 24640 kPa | 1112.7 kg/m3 | –
313.15 K, 29640 kPa | 1114.8 kg/m3 | –
313.15 K, 34510 kPa | 1116.9 kg/m3 | –
313.15 K, 39340 kPa | 1118.9 kg/m3 | –
313.15 K, 44340 kPa | 1120.9 kg/m3 | –
313.15 K, 49190 kPa | 1123.2 kg/m3 | –
313.15 K, 54020 kPa | 1124.7 kg/m3 | –
313.15 K, 59030 kPa | 1126.7 kg/m3 | –
313.15 K, 63880 kPa | 1128.5 kg/m3 | –
313.15 K, 68820 kPa | 1130.3 kg/m3 | –
313.38 K, 200 kPa | – | 14.25 mPa·s and 14.24 mPa·s and 14.26 mPa·s
313.38 K, 210 kPa | – | 14.23 mPa·s [middle of 5 runs]
313.38 K, 1170 kPa | – | 14.28 mPa·s and 14.27 mPa·s
313.38 K, 1180 kPa | – | 14.33 mPa·s
313.38 K, 2300 kPa | – | 14.28 mPa·s
313.38 K, 2310 kPa | – | 14.5 mPa·s
313.38 K, 2320 kPa | – | 14.38 mPa·s
313.38 K, 5060 kPa | – | 14.69 mPa·s and 14.72 mPa·s
313.38 K, 5070 kPa | – | 14.63 mPa·s and 14.65 mPa·s
313.38 K, 5080 kPa | – | 14.64 mPa·s
313.38 K, 10280 kPa | – | 15.26 mPa·s
313.38 K, 10290 kPa | – | 15.13 mPa·s
313.38 K, 10300 kPa | – | 15.2 mPa·s
313.38 K, 20100 kPa | – | 16.33 mPa·s
313.38 K, 20110 kPa | – | 16.16 mPa·s and 16.17 mPa·s
313.38 K, 30110 kPa | – | 17.27 mPa·s and 17.34 mPa·s and 17.33 mPa·s
313.38 K, 40110 kPa | – | 18.5 mPa·s [middle of 4 runs]
313.38 K, 50110 kPa | – | 19.66 mPa·s and 19.68 mPa·s
313.38 K, 50120 kPa | – | 19.64 mPa·s
313.38 K, 50130 kPa | – | 19.61 mPa·s
313.38 K, 69490 kPa | – | 22.11 mPa·s
313.38 K, 69530 kPa | – | 22.04 mPa·s
313.38 K, 69580 kPa | – | 21.98 mPa·s
323.15 K, 100 kPa | 1094.3 kg/m3 | –
323.15 K, 680 kPa | 1094.6 kg/m3 | –
323.15 K, 1130 kPa | 1094.8 kg/m3 | –
323.15 K, 1570 kPa | 1095 kg/m3 | –
323.15 K, 2100 kPa | 1095.2 kg/m3 | –
323.15 K, 3080 kPa | 1095.7 kg/m3 | –
323.15 K, 5080 kPa | 1096.7 kg/m3 | –
323.15 K, 7000 kPa | 1097.6 kg/m3 | –
323.15 K, 9950 kPa | 1099 kg/m3 | –
323.15 K, 14890 kPa | 1101.4 kg/m3 | –
